Measurements: ChEMBL document CHEMBL5150075 (J Med Chem, 2022)

Experiments:
[1] = system: NCI-H460; experiment: cells; conditions: Homo sapiens, NCI-H460, 72 h
Description: Antiproliferative activity against human NCI-H460 cells assessed as inhibition of cell growth incubated for 72 hrs by MTT assay

[2] = system: SW1990; experiment: Antiproliferative activity against human SW1990 cells assessed as inhibition of cell growth incubated for 72 hrs by MTT assay; type: functional, cell-based; conditions: SW1990, 72 h
[3] = AUC (0 to t) in Kunming mouse at 20 mg/kg, po by LC-MS/MS analysis; type: ADME, organism-based; design: dose 20 mg/kg, route po; conditions: in vivo
[4] = Stability in rat liver microsomes assessed as half life incubated in presence of NADPH by LC-MS/MS analysis; type: ADME, Microsome
[5] = Oral bioavailability in Kunming mouse at 20 mg/kg by LC-MS/MS analysis; type: ADME, organism-based; conditions: in vivo
[6] = Mutagenicity in Salmonella typhimurium TA-97 at 0.5 to 500 ug per plate incubated for 72 hrs in presence or absence of S9 fraction by Ames test; type: toxicity, Salmonella enterica subsp. enterica serovar Typhimurium; conditions: in vivo, dose 0.5-500 µg
[7] = system: NCI-H1299; experiment: Antitumor activity against human NCI-H1299 cells xenografted in BALB/c nude mouse assessed as suppression of tumor growth at 20 mg/kg, po administered once daily and measured twice a week relative to control; type: functional
[8] = Tmax in Kunming mouse at 20 mg/kg, po by LC-MS/MS analysis; type: ADME, organism-based; conditions: in vivo
[9] = Stability in mouse liver microsomes assessed as half life incubated in presence of NADPH by LC-MS/MS analysis; type: ADME, Microsome
[10] = system: A549; experiment: Antitumor activity against paclitaxel-resistant human A549 cells xenografted in BALB/c nude mouse assessed as tumor growth inhibition at 20 mg/kg, po administered once daily and measured twice a week relative to control; type: functional; conditions: read-out: TGI

Compound: Cc1ccc(S(=O)(=O)Nc2cc(C(=O)NCc3ccc(C)nc3)ccc2C)cc1
- IC50 [1]: 77 nM
- IC50 [2]: 15 nM
- AUC(0-t) [3]: 2580 ng·h/mL
- half-life [4]: 2.3 min
- bioavailability [5]: 48.2%
- Activity [6]: Non-Toxic
- Activity [7]: 73.6%
- Tmax [8]: 4.98 min
- half-life [9]: 26 min
- inhibition in vivo at 20 mg/kg [10]: 74.8%
